Experimental data from US12157730B2, “Heteroaryl derivative, method for producing same, and pharmaceutical composition comprising same as effective component” (VORONOI INC., priority 2019, dated 2024).

Target: T1, Ba/F3 cell EGFR Exon20 ins NPH (Homo sapiens, UniProt P00533, INS773NPH)
T1 construct: expressed in transfected cells; host or cells: Ba/F3
Assay: Ba/F3 cell proliferation suppression, EGFR Exon20 ins NPH
Type: cell-based
Settings: GI50 class; Ba/F3 cell line with NPH inserted at Exon20 of EGFR; 72 hours
In short: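 72 h compound exposure, 0.3 nM–50 um (12 points, 3:1 dilution in DMSO); viability by CellTiter-Glo luminescence. Ba/F3 medium: RPMI-1640, 10% FBS, 5 ng/ml IL-3, 1 ug/ml puromycin for transduced cells. GI50 vs control, n=3.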

Row | Structure (SMILES) | Ba/F3 (NPH) Activity
1 | C=CC(=O)Nc1cc(Nc2cc(N3OCC[C@@H]3c3cccc4ccccc34)ncn2)c(OC)cc1N1CCC(N2CCN(C3COC3)CC2)CC1 [Example 198, N-(4-methoxy-5-((6-((R)-3-(naphthalene-1-yl)isoxazolidine-2-yl)pyrimidine-4-yl)amino)-2-(4-(4-(oxetane-3-yl)piperazine-1-yl)piperidine-1-yl)phenyl)acrylamide] | A (GI50 < 50 nM)
2 | C=CC(=O)Nc1cc(Nc2cc(N3OCC[C@H]3c3c(F)cccc3F)ncn2)c(OC)cc1N1CCC(N2CCN(C(C)=O)CC2)CC1 [compound 310, N-(2-(4-(4-acetylpiperazine-1-yl)piperidine-1-yl)-5-((6-((S)-3-(2,6-difluorophenyl)isoxazolidine-2-yl)pyrimidine-4-yl)amino)-4-methoxyphenyl) acrylamide] | C (500 nM ≤ GI50 < 5000 nM)
3 | C=CC(=O)Nc1cc(Nc2cc(N3OCC[C@@H]3c3ccc(F)c(Cl)c3)ncn2)c(OC)cc1N1CCC(N2C[C@@H](C)N(C3CC3)C[C@H]2C)CC1 [Example 178, N-(5-((6-((R)-3-(3-chloro-4-fluorophenyl)isoxazolidine-2-yl)pyrimidine-4-yl)amino)-2-(4-((2R,5R)-4-cyclopropyl-2,5-dimethylpiperazine-1-yl)piperidine-1-yl)-4-methoxyphenyl) acrylamide] | A (GI50 < 50 nM)
4 | C=CC(=O)Nc1cc(Nc2cc(N3OCC[C@@H]3c3cc(F)cc(F)c3)ncn2)c(OC)cc1N1CCC(N2CCN(C3CC3)[C@H](C)C2)CC1 [Example 109, N-(2-(4-((R)-4-cyclopropyl-3-methylpiperazine-1-yl)piperidine-1-yl)-5-((6-((R)-3-(3,5-difluorophenyl)isoxazolidine-2-yl)pyrimidine-4-yl)amino)-4-methoxyphenyl) acrylamide] | A (GI50 < 50 nM)
5 | C=CCN1CCN(C2CCN(c3cc(OC)c(Nc4cc(N5OCC[C@@H]5c5cccc(Cl)c5C)ncn4)cc3NC(=O)C=C)CC2)CC1 [Example 213, N-(2-(4-(4-allylpiperazine-1-yl)piperidine-1-yl)-5-((6-((R)-3-(3-chloro-methylphenyl)isoxazolidine-2-yl)pyrimidine-4-yl)amino)-4-methoxyphenyl) acrylamide] | A (GI50 < 50 nM)
6 | C=CC(=O)Nc1cc(Nc2cc(N3OCC[C@@H]3c3cccc(Cl)c3)ncn2)c(OC)cc1N1CCC(N2CCC(N(C)C)CC2)CC1 [compound 414, N-(5-((6-((R)-3-(3-chlorophenyl)isoxazolidine-2-yl)pyrimidine-4-yl)amino)-2-(4-(dimethylamino)-[1,4'-bipiperidine]-1'-yl)-4-methoxyphenyl) acrylamide] | A (GI50 < 50 nM)
7 | C=CC(=O)Nc1cc(Nc2cc(N3OCC[C@@H]3c3cccc(F)c3F)ncn2)c(OC)cc1N1CCC(N2CCN(C(C)=O)CC2)CC1 [compound 339, N-(2-(4-(4-acetylpiperazine-1-yl)piperidine-1-yl)-5-((6-((R)-3-(2,3-difluorophenyl)isoxazolidine-2-yl)pyrimidine-4-yl)amino)-4-methoxyphenyl) acrylamide] | A (GI50 < 50 nM)
8 | C=CC(=O)Nc1cc(Nc2cc(N3OCC[C@H]3c3c(F)cccc3F)ncn2)c(OC)cc1N1CCC(N2CCN(C3CC3)CC2)CC1 [Example 129, N-(2-(4-(4-cyclopropylpiperazine-1-yl)piperidine-1-yl)-5-((6-((S)-3-(2,6-difluorophenyl)isoxazolidine-2-yl)pyrimidine-4-yl)amino)-4-methoxyphenyl) acrylamide] | C (500 nM ≤ GI50 < 5000 nM)
9 | C=CC(=O)Nc1cc(Nc2cc(N3OCC[C@@H]3c3cccc(F)c3F)ncn2)c(OC)cc1N1CCC(N2CCN(C3CC3)[C@@H](C)C2)CC1 [Example 175, N-(2-(4-((S)-4-cyclopropyl-3-methylpiperazine-1-yl)piperidine-1-yl)-5-((6-((R)-3-(2,3-difluorophenyl)isoxazolidine-2-yl)pyrimidine-4-yl)amino)-4-methoxyphenyl) acrylamide] | A (GI50 < 50 nM)
10 | C=CC(=O)Nc1cc(Nc2cc(N3OCC[C@@H]3c3ccc4ccccc4c3)ncn2)c(OC)cc1N1CCC(N2CCN(C3COC3)CC2)CC1 [Example 200, N-(4-methoxy-5-((6-((R)-3-(naphthalene-2-yl)isoxazolidine-2-yl)pyrimidine-4-yl)amino)-2-(4-(4-(oxetane-3-yl)piperazine-1-yl)piperidine-1-yl)phenyl)acrylamide] | B (50 nM ≤ GI50 < 500 nM)
11 | C=CC(=O)Nc1cc(Nc2cc(N3OCC[C@@H]3c3ccc(F)c(Cl)c3)ncn2)c(OC)cc1N1CCC(N2C[C@H](C)N(C3CC3)C[C@@H]2C)CC1 [Example 121, N-(5-((6-((R)-3-(3-chloro-4-fluorophenyl)isoxazolidine-2-yl)pyrimidine-4-yl)amino)-2-(4-((2S,5S)-4-cyclopropyl-2,5-dimethylpiperazine-1-yl)piperidine-1-yl)-4-methoxyphenyl) acrylamide] | A (GI50 < 50 nM)
12 | C=CC(=O)Nc1cc(Nc2cc(N3OCC[C@@H]3c3ccc(F)cc3F)ncn2)c(OC)cc1N1CCC(N2C[C@H]3C[C@@H]2CN3CC)CC1 [compound 425, N-(5-((6-((R)-3-(2,4-difluorophenyl)isoxazolidine-2-yl)pyrimidine-4-yl)amino)-2-(4-((1R,4R)-5-ethyl-2,5-diazabicyclo [2.2.1]heptane-2-yl)piperidine-1-yl)-4-methoxyphenyl) acrylamide] | A (GI50 < 50 nM)

The remaining lines, values ahead:

Row | Ba/F3 (NPH) Activity | Structure (SMILES)
13 | B (50 nM ≤ GI50 < 500 nM) | C=CC(=O)Nc1cc(Nc2cc(N3OCC[C@@H]3c3cccc4ccccc34)ncn2)c(OC)cc1N1CCC(N2C[C@@H](C)O[C@@H](C)C2)CC1 [compound 491, N-(2-(4-((2S,6R)-2,6-dimethylmorpholino)piperidine-1-yl)-4-methoxy-5-((6-((R)-3-(naphthalene-1-yl)isoxazolidine-2-yl)pyrimidine-4-yl)amino)phenyl)acrylamide]
14 | A (GI50 < 50 nM) | C=CC(=O)Nc1cc(Nc2cc(N3OCC[C@@H]3c3cccc(Cl)c3C)ncn2)c(OC)cc1N1CCN(C)CC1 [compound 584, N-(5-((6-((R)-3-(3-chloro-2-methylphenyl)isoxazolidine-2-yl)pyrimidine-4-yl)amino)-4-methoxy-2-(4-methylpiperazine-1-yl)phenyl)acrylamide]
15 | A (GI50 < 50 nM) | C=CC(=O)Nc1cc(Nc2cc(N3OCC[C@@H]3c3ccc(F)c(Cl)c3)ncn2)c(OC)cc1N(C)CCN(C)C [compound 701, N-(5-((6-((R)-3-(3-chloro-4-fluorophenyl)isoxazolidine-2-yl)pyrimidine-4-yl)amino)-2-((2-(dimethylamino)ethyl)(methyl)amino)-4-methoxyphenyl) acrylamide]
16 | B (50 nM ≤ GI50 < 500 nM) | C=CC(=O)Nc1cc(Nc2cc(N3OCC[C@@H]3c3ccc(F)c(Cl)c3F)ncn2)c(OC)cc1N1CCO[C@H](C)C1 [compound 666, N-(5-((6-((R)-3-(3-chloro-2,4-difluorophenyl)isoxazolidine-2-yl)pyrimidine-4-yl)amino)-4-methoxy-2-((R)-2-methylmorpholino)phenyl)acrylamide]
17 | A (GI50 < 50 nM) | C=CC(=O)Nc1cc(Nc2cc(N3OCC[C@@H]3c3ccc(F)c(Cl)c3)ncn2)c(OC)cc1N1CCC(N2CCC3(CC2)CC3)CC1 [compound 872, N-(2-(4-(6-azaspiro [2.5]octan-6-yl)piperidine-1-yl)-5-((6-((R)-3-(3-chloro-4-fluorophenyl)isoxazolidine-2-yl)pyrimidine-4-yl)amino)-4-methoxyphenyl) acrylamide]
18 | B (50 nM ≤ GI50 < 500 nM) | C=CC(=O)Nc1cc(Nc2cc(N3OCC[C@@H]3c3ccc4ccccc4c3)ncn2)c(OC)cc1N1CCC(N2CCN(C(C)C)CC2)CC1 [compound 550, N-(2-(4-(4-isopropylpiperazine-1-yl)piperidine-1-yl)-4-methoxy-5-((6-((R)-3-(naphthalene-2-yl)isoxazolidine-2-yl)pyrimidine-4-yl)amino)phenyl)acrylamide]
19 | A (GI50 < 50 nM) | C=CC(=O)Nc1cc(Nc2cc(N3OCC[C@@H]3Cc3cccc(F)c3)ncn2)c(OC)cc1N1CCN(C)CC1 [compound 991, N-(5-((6-((S)-3-(3-fluorobenzyl)isoxazolidine-2-yl)pyrimidine-4-yl)amino)-4-methoxy-2-(4-methylpiperazine-1-yl)phenyl)acrylamide]
20 | A (GI50 < 50 nM) | C=CC(=O)Nc1cc(Nc2cc(N3OCC[C@@H]3c3ccc(F)c(Cl)c3)ncn2)c(OC)cc1N1CCN(CC)CC1 [compound 723, N-(5-((6-((R)-3-(3-chloro-4-fluorophenyl)isoxazolidine-2-yl)pyrimidine-4-yl)amino)-2-(4-ethylpiperazine-1-yl)-4-methoxyphenyl) acrylamide]
21 | B (50 nM ≤ GI50 < 500 nM) | C=CC(=O)Nc1cc(Nc2cc(N3OCC[C@@H]3c3ccc(Cl)c(Cl)c3F)ncn2)c(OC)cc1N1CCC(N2CC[C@H](N(C)C)C2)CC1 [compound 772, N-(5-((6-((R)-3-(3,4-dichloro-2-fluorophenyl)isoxazolidine-2-yl)pyrimidine-4-yl)amino)-2-(4-((S)-3-(dimethylamino)pyrolidine-1-yl)piperidine-1-yl)-4-methoxyphenyl) acrylamide]
22 | A (GI50 < 50 nM) | C=CC(=O)Nc1cc(Nc2cc(N3OCC[C@@H]3c3cc(F)ccc3F)ncn2)c(OC)cc1N1CCC(N2CCN(C(C)=O)CC2)CC1 [compound 815, N-(2-(4-(4-acetylpiperazine-1-yl)piperidine-1-yl)-5-((6-((R)-3-(2,5-difluorophenyl)isoxazolidine-2-yl)pyrimidine-4-yl)amino)-4-methoxyphenyl) acrylamide]
23 | A (GI50 < 50 nM) | C=CC(=O)Nc1cc(Nc2cc(N3OCC[C@@H]3c3cccc(OC)c3)ncn2)c(OC)cc1N1CC[C@@H](N(C)C)C1 [compound 776, N-(2-((R)-3-(dimethylamino)pyrolidine-1-yl)-4-methoxy-5-((6-((R)-3-(3-methoxyphenyl)isoxazolidine-2-yl)pyrimidine-4-yl)amino)phenyl)acrylamide]
